# ChEMBL document CHEMBL1201862, “PubChem BioAssay data set” (2004)
# “And” between values parts separate entries of the source, which are not always exact repeats. Equal entries are not always repeated. The source made the active and inactive calls.
# Tests used:
# [1] = luciferase reporter signal suppression in cells – H4 neuroglioma cells, luminescence, dose response (AID 1990); assay type: functional, cell-based
# [2] = Luminescence Cell-Based Dose Response HTS to Identify Inhibitors of 5'UTR Stem-Loop Driven Prion Protein mRNA Translation in H4 Neuroglioblastoma Cells. [Related pubchem assays: 1827 (Project Summary), 1813 (Primary HTS)]; assay type: functional
# [3] = alpha-synuclein stem-loop luciferase translation blockers – H4 neuroglioma cells, luminescence, confirmation (AID 1988); assay type: functional, cell-based
# [4] = Luminescence Cell-Based Dose Retest to Confirm Inhibitors of Cancer Stem Cells. [Related pubchem assays (depositor defined):AID2717, AID2721]; assay type: functional; details: Homo sapiens
# [5] = HEK-293T viability loss after treatment – luminescence, T-cell screen hits, cytotoxicity control for TCR NF-kB inhibitor project, dose response (AID 489026); assay type: functional, cell-based;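 further: cells exposed to compound about 14 hours before the viability readout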
# [6] = biological target: T1, Polyadenylate-binding protein 1 (Homo sapiens, UniProt P11940); experiment: MLLE binding blockers, Cy5 peptide tracer – biochemical, fluorescence polarization, Cy5-PAM2 peptide, secondary, miRNA deadenylation inhibitor project, dose response (AID 602260); assay type: functional; details: read-out: IC50_Mean
# T1 sequence (P11940 whole entry, the tested form may be a part): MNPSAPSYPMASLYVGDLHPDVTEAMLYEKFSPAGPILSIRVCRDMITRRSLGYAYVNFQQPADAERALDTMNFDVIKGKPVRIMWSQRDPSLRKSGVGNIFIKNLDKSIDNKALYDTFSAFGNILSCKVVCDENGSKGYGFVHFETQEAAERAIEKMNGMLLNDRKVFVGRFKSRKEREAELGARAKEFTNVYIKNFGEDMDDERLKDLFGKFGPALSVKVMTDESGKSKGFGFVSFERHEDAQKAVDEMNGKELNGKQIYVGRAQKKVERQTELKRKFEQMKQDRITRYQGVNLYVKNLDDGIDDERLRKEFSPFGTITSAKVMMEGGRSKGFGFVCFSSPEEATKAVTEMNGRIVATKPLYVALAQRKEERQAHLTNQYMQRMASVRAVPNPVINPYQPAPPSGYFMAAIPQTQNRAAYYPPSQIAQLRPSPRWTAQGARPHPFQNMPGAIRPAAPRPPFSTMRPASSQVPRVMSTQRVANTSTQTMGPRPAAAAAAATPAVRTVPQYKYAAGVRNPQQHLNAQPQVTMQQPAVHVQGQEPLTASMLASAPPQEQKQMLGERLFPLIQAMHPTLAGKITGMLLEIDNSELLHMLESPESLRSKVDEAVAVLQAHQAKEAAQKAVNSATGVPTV
# [7] = biological target: T1, Polyadenylate-binding protein 1; experiment: MLLE domain peptide-binding blockers, IC50 – biochemical, fluorescence polarization, FITC-PAM2 peptide, dose response (AID 602259); assay type: functional; details: read-out: IC50_Mean
# [8] = biological target: T2, Calpain-2 catalytic subunit (Sus scrofa, UniProt P43367); experiment: m-calpain protease blockers, concentration series – biochemical, fluorogenic peptide substrate, dose response (AID 1420); assay type: functional
# T2 sequence (P43367 whole entry): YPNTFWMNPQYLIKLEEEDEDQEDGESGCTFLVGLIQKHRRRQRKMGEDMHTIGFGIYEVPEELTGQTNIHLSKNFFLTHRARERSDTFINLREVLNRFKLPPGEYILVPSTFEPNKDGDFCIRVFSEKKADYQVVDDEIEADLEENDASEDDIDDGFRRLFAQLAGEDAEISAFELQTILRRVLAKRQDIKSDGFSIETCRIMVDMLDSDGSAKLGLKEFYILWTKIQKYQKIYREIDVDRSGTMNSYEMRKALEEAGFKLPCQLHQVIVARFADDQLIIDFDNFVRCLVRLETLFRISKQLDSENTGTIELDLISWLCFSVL
# Paired box protein Pax-8 = Paired box protein Pax-8 (Homo sapiens, UniProt Q06710); experiment: PAX8 transcriptional activity inhibition in RMG-I – RMG-I cells, luciferase, cherry-pick, dose response (AID 687027); assay type: functional, cell-based;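 further: luciferase reporter driven by Pax8 target thyroperoxidase promoter measured by SteadyGlo luminescence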
# Chain of Paired box protein Pax-8 (Q06710 whole entry): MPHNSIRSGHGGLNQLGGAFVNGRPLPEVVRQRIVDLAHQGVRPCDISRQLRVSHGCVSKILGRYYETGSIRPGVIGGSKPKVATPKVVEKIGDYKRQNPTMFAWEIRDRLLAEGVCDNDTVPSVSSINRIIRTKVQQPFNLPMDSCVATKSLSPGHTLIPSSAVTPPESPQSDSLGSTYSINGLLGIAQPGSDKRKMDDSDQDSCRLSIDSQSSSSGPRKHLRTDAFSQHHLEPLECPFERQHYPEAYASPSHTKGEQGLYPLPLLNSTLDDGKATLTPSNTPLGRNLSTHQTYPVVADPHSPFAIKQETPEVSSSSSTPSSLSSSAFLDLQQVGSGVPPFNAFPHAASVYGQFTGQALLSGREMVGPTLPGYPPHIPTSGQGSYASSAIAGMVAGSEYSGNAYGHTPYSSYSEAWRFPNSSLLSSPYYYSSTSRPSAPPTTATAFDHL
# Cytochrome P450 2C19 = Cytochrome P450 2C19 (Homo sapiens, UniProt P33261); experiment: Cytochrome panel assay with activity outcomes. Panel member name: p450-cyp2c19 Compounds with AC50 equal or less than 10 uM are considered active; assay type: functional
# Chain of Cytochrome P450 2C19 (P33261 whole entry): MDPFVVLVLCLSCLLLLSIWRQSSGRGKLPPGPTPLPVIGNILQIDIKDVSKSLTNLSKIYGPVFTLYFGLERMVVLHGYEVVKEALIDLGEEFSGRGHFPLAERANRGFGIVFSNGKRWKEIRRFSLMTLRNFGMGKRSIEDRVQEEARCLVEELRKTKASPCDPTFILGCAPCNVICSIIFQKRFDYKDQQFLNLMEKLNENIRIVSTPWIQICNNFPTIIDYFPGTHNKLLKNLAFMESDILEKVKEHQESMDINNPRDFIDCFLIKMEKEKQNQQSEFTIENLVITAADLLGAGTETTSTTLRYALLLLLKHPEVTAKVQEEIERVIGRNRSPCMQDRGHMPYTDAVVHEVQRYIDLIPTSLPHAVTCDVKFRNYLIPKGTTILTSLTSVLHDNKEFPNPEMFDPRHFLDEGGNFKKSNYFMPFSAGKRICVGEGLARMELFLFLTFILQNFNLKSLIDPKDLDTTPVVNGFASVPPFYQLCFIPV
# Cytochrome P450 2C9 = Cytochrome P450 2C9 (Homo sapiens, UniProt P11712)
# Chain of Cytochrome P450 2C9 (P11712 whole entry): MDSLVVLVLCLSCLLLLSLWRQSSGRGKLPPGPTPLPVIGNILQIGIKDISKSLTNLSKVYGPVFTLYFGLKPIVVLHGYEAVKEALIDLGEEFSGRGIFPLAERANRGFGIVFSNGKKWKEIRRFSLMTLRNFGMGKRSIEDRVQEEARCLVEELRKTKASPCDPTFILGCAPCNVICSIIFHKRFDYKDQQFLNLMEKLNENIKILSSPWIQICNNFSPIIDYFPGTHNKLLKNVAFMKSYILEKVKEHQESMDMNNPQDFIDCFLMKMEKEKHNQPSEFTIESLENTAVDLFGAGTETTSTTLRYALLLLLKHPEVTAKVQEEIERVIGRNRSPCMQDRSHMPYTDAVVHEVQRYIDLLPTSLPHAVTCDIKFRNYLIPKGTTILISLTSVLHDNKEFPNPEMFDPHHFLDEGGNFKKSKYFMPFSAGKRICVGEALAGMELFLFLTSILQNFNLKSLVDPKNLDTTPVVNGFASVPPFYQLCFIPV
# [9] = biological target: T3, Short transient receptor potential channel 4 (Mus musculus, UniProt Q9QUQ5); experiment: block of DAMGO-driven TRPC4 calcium entry – cell-based, HEK293 TRPC4/mu-opioid, Fluo-4 calcium, dose response (AID 434942); assay type: functional;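 further: potency of inhibitors blocking the TRPC4 calcium response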
# T3 sequence (Q9QUQ5 whole entry): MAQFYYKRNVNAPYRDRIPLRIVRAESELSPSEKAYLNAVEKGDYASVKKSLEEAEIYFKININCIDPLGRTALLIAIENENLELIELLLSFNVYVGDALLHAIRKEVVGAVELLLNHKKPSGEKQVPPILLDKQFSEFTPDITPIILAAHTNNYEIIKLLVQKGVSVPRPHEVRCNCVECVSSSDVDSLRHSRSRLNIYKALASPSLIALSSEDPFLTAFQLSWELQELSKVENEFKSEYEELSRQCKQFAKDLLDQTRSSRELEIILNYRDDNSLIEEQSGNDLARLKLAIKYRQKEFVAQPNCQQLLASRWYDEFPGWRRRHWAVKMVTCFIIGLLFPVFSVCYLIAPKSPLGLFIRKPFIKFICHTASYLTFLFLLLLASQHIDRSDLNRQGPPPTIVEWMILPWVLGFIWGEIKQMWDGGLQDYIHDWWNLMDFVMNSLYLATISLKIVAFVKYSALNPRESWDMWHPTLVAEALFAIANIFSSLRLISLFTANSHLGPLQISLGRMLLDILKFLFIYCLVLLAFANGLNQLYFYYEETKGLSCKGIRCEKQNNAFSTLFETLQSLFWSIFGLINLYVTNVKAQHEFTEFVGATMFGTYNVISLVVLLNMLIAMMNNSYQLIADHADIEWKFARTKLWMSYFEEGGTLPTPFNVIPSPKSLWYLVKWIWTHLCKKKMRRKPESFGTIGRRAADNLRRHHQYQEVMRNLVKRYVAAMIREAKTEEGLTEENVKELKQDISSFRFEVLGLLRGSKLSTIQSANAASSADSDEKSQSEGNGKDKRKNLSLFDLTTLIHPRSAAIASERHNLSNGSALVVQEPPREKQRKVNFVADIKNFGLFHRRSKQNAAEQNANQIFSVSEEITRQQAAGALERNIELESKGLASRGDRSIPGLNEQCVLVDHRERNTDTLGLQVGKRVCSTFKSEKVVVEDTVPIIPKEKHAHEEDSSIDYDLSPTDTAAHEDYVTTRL
# Cytochrome P450 1A2 = biological target: T4, Cytochrome P450 1A2 (Homo sapiens, UniProt P05177);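 further: PubChem cytochrome P450 panel assay, CYP1A2 panel member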
# T4 sequence (P05177 whole entry): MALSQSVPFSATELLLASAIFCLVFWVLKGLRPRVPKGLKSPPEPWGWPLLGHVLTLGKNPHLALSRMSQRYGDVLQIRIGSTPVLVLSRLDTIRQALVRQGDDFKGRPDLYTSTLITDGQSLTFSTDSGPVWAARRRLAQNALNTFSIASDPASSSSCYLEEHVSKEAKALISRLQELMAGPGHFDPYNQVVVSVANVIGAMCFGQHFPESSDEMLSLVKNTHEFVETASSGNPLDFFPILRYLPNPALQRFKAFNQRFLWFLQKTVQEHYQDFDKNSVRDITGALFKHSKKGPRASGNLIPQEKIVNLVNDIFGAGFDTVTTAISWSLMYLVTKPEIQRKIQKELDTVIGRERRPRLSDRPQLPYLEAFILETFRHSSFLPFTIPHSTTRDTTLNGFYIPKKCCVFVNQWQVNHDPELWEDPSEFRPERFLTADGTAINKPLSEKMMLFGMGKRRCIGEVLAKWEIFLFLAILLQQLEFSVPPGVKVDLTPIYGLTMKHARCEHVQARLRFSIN
# [10] = THP-1 cell cytotoxicity, dose response, cytotoxicity control for non-replicating M. tuberculosis project (AID 489025); assay type: functional
# [11] = Vero E6 cell cytotoxicity, dose response, cytotoxicity control for non-replicating M. tuberculosis project, secondary assay (AID 492998); assay type: functional, VeroE6; details: Vero C1008
# cells = assay type: functional
# INS1 = experiment: INS-1E survival protection against cytokine death – cell-based, luminescence, retest, dose response (AID 449756); assay type: functional; details: Rattus norvegicus;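 further: cell death triggered by IL-1 beta plus TNF-alpha plus IFN-gamma mixture; protective hits raise ATP signal compared with cytokine alone wells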
# Vero = experiment: cells; assay type: functional; details: Chlorocebus sabaeus
# [12] = A549 cell cytotoxicity, dose response, cytotoxicity control, plate reader, cherry-pick, antagonist series (AID 743412); assay type: functional, cell-based
# [13] = toxicity toward HepG2 liver cells – cell-based, plate reader, cherry-pick, antagonist series, cytotoxicity control, dose response (AID 743416); assay type: functional
# [14] = blockers of bursicon-stimulated LGR2 cAMP reporter – cell-based, HEK293, CRE-luciferase reporter, cherry pick, set 2, dose response (AID 743343); assay type: functional;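 further: transfected cells were stimulated with diluted bursicon conditioned medium after compound addition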
# [15] = blockade of melanocortin 4 receptor signaling – cell-based, plate reader, cherry pick, counter-screen for LGR2 antagonist project, dose response (AID 743444); assay type: functional;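 further: transfected HEK 293 cells stimulated with alpha-MSH peptide; potency of inhibitors of the alpha-MSH evoked signal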
# [16] = viability loss in HEK293 cells – cell-based, plate reader, cherry-picked samples, cytotoxicity control, dose response (AID 743446); assay type: functional
# Protein skinhead-1 = biological target: T5, Protein skinhead-1 (Caenorhabditis elegans, UniProt P34707); assay type: functional
# T5 sequence (P34707 whole entry): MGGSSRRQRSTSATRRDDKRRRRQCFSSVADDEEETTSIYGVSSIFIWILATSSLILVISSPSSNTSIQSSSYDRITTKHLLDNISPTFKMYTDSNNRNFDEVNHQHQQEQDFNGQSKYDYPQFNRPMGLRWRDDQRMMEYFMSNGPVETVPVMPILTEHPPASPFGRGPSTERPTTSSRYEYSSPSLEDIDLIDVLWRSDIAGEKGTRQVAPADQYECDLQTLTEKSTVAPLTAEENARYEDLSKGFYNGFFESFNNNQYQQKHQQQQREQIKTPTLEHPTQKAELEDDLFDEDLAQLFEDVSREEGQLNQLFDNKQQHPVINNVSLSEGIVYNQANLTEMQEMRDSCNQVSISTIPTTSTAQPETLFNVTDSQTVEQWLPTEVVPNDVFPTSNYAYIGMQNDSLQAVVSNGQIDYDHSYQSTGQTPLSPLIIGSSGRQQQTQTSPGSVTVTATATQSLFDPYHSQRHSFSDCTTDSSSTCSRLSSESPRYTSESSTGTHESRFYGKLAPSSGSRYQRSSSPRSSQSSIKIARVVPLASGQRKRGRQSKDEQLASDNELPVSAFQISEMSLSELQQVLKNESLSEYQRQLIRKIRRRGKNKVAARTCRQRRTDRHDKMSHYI
# [17] = biological target: Heat shock protein HSP 90-alpha (Homo sapiens, UniProt P07900); assay type: functional, organism-based
# Cytochrome P450 2D6 = Cytochrome P450 2D6 (Homo sapiens, UniProt P10635);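 further: CYP2D6 member of a cytochrome P450 panel assay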
# Chain of Cytochrome P450 2D6 (P10635 whole entry): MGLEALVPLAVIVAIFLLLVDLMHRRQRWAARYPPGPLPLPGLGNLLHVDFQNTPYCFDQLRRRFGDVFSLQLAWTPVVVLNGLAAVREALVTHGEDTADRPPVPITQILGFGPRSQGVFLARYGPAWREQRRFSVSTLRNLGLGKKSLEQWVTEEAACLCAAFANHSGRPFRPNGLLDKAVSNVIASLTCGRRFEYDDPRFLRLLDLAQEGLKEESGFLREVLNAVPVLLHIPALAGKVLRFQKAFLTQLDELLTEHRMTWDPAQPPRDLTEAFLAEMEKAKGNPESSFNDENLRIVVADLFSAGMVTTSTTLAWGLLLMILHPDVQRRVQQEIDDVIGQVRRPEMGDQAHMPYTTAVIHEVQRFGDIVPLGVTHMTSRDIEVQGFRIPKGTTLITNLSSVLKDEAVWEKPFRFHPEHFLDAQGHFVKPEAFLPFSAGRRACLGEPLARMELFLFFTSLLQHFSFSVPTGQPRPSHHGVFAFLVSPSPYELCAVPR
# [18] = viability of uninfected HEp-2 cells – cell-based, HTS, cytotoxicity control for RSV inhibitor project, dose response (AID 2410); assay type: functional; details: human respiratory syncytial virus
# [19] = reduction of Shn3 3'UTR-driven luciferase in osteoblasts – cell-based, Clone20 osteoblasts, firefly luciferase, cherry-picked, dose response (AID 624132); assay type: functional;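 further: firefly luciferase luminescence from reporter carrying the Shn3 3'UTR in osteoblasts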
# [20] = biological target: Luciferin 4-monooxygenase (Photinus pyralis, UniProt P08659); experiment: inhibition of purified Photinus pyralis luciferase – biochemical, luminescence, dose response (AID 1891)
# Chain of Luciferin 4-monooxygenase (P08659 whole entry): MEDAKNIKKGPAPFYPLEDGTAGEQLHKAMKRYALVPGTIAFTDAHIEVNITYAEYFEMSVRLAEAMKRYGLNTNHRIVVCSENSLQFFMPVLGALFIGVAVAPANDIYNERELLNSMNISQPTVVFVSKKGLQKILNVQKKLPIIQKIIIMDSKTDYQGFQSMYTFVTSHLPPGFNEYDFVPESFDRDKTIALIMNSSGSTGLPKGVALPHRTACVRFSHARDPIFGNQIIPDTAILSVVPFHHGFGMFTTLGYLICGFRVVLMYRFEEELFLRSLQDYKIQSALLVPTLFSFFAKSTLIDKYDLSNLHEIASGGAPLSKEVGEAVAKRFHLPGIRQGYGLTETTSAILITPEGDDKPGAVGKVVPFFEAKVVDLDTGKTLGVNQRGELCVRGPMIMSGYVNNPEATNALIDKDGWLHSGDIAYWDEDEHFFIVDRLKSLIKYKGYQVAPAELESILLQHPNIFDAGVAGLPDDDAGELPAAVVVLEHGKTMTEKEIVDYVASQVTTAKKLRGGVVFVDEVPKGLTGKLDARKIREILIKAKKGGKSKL
# [21] = Luminescence Cell-Based Dose Confirmation HTS to Identify Inhibitors of Platelet Dense Granule Release. [Related pubchem assays: 1663 (Primary HTS), 1678 (Summary of Project)]; assay type: functional
# Cytochrome P450 3A4 = Cytochrome P450 3A4 (Homo sapiens, UniProt P08684);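 further: CYP3A4 tested as one member of a cytochrome P450 panel screen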
# Chain of Cytochrome P450 3A4 (P08684 whole entry): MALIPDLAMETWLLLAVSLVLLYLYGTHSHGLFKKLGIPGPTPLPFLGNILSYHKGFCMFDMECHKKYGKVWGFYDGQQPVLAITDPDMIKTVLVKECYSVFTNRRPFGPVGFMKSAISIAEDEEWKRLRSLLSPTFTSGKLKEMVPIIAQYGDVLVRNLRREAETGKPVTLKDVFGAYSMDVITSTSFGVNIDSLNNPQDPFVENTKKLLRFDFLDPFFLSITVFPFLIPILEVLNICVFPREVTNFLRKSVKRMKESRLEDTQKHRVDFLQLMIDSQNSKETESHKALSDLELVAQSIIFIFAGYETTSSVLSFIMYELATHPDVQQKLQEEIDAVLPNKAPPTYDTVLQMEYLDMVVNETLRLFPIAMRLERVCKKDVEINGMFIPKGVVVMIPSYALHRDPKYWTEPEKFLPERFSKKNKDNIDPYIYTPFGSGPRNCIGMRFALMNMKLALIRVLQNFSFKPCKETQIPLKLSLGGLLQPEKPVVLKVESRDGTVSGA
smiles,measurement,setting,value
COC(=O)Nc1ccc(S(=O)(=O)N2CCCc3ccccc32)cc1,EC50,[1],8.02 µM (active)
same,EC50,[2],7.32 µM (active)
same,EC50,[3],0.37 µM (active)
same,AC50,[4],0.362 µM (active)
same,IC50,[5],> 80 µM (inactive)
O=C(NC(=S)NCCC1=CCCCC1)c1ccccc1Br,IC50,[6],> 66 µM (inactive)
same,IC50,[7],> 66 µM (inactive)
COc1ccc(/C=N/NC(=O)C2c3ccccc3Oc3ccccc32)c(OC)c1,IC50,[8],10.9 µM (not active)
Cc1ccc(C(=O)c2cc([N+](=O)[O-])ccc2N2CCCCC2)c(C)c1,IC50,[5],> 80 µM (inactive)
same,AC50,Paired box protein Pax-8,0.929 µM (active)
Cc1cc(SC(C)C(=O)Nc2c(C)n(C)n(-c3ccccc3)c2=O)nc2ccccc12 (centres undefined),AC50,Cytochrome P450 2C19; read-out: AC50,11.2 µM (inconclusive)
same,AC50,Cytochrome P450 2C9,inconclusive
Cc1ccccc1C(=O)NC1CC2CCC(C1)N2Cc1ccccc1 (centres undefined),EC50,[9],0.188 µM (active)
CCOC(=O)c1c(NC(=O)C2CC(Cl)=CCC2C(=O)O)sc2c1CCCCC2 (centres undefined),EC50,[9],6.68 µM (active)
CN(C)CCCN1c2ccccc2CCc2ccc(Cl)cc21 [CLOMIPRAMINE],AC50,Cytochrome P450 2C19,inactive
same,AC50,Cytochrome P450 1A2,15.8 µM (active) and 5.01 µM (active) and 20 µM (inconclusive)
same,AC50,Cytochrome P450 2C9,inactive
CC[n+]1c(/C=C(/C)SC)sc2ccccc21,IC50,[6],> 66 µM (inactive)
same,IC50,[7],> 66 µM (inactive)
Cc1ccccc1C(=O)Nc1ccc(N2CCOCC2)nc1,AC50,Cytochrome P450 1A2,17.8 µM (inconclusive)
same,AC50,Cytochrome P450 2C9,inconclusive
Cc1ccc2nc(NC(=O)c3ccccn3)sc2c1,CC50,[10],10.7 µM (active)
same,CC50,[11],7.23 µM (active)
same,IC50,cells,0.63 µM (active)
same,AC50,INS1,2.19 µM (active)
same,CC50,Vero,11.3 µM (active)
same,AC50,[12],4.99 µM (active)
same,AC50,[13],9.65 µM (active)
same,AC50,[14],0.737 µM (active)
same,AC50,[15],0.582 µM (active)
same,AC50,[16],14 µM (active)
CN(Cc1ccccc1)C(=O)c1ccc([N+](=O)[O-])o1,CC50,[10],> 40 µM (active)
same,CC50,[11],19.4 µM (active)
same,IC50,cells,0.36 µM (active)
CCOC(=O)C(CSCC(=O)c1ccc(Cl)cc1Cl)NC(=O)OC(C)(C)C (centres undefined),IC50,[6],> 66 µM (inactive)
same,IC50,[7],> 66 µM (inactive)
same,IC50,Protein skinhead-1,> 100 µM (inactive)
O=C(NN1C(=O)c2ccccc2NC1c1ccco1)c1ccc([N+](=O)[O-])cc1 (centres undefined),IC50,[8],10.6 µM (not active)
Cc1ccc(-c2nc3cccnc3s2)cc1NS(=O)(=O)c1ccc2c(c1)OCCO2,AC50,[17],2.9 µM (active)
Cc1cc(NC(=O)c2ccccc2Cl)c(C(C)C)cc1O,AC50,Cytochrome P450 2C9,inconclusive
Cc1c(Cl)c(S(N)(=O)=O)cc2c1N=CNS2(=O)=O,AC50,Cytochrome P450 2D6,3.98 µM (inconclusive)
same,AC50,Cytochrome P450 2C9,inconclusive
COC(=O)c1cn(NC(=O)c2cc([N+](=O)[O-])ccc2F)c(=O)c2ccccc12,CC50,[18],3.87 µM (active)
same,IC50,[5],> 80 µM (inactive)
same,AC50,[19],2.85 µM (active)
Cc1c(C#N)c(=O)oc2ccc3ccccc3c12,AC50,Cytochrome P450 2C9,inconclusive
O=C(CNC(=O)C12CC3CC(CC(C3)C1)C2)NC1=NCCS1,IC50,[6],> 66 µM (inactive)
same,IC50,[7],> 66 µM (inactive)
CCc1ccc(CNCc2cccnc2)cc1,IC50,[8],0.454 µM (not active)
Cc1cc(C)c2c(N=NN3CCOCC3)[nH]nc2n1,EC50,[20],> 112 µM (not active)
same,EC50,[21],> 112 µM (not active)
same,AC50,[17],4.4 µM (active)
CC(C)CN1CCCC2(CCN(C(=O)c3ccco3)CC2)C1,AC50,Cytochrome P450 3A4,31.6 µM (inconclusive)
same,AC50,Cytochrome P450 2C9,inconclusive
